Experimental data taken from US12478617B2, “Lipidated peptide inhibitors of interleukin-23 receptor” (JANSSEN BIOTECH, INC., priority 2021, dated 2025).
Starred links: 1 amine or outer side, 2 acyl side, 3 side chain; linkers in the order of their positions; H or OH if unused. Positions of bridges follow the written chain, without caps; N, C: chain ends. Non-standard residues stand in square brackets, D forms with d. Residues, ends and D or L forms follow the SMILES beside them. Groups on a side chain read outwards from the residue. *: point of attachment. Trp(7-Me) = Cc1cccc2c(C[C@H](N)C(=O)O)c[nH]c12; C18 diacid = O=C(O)CCCCCCCCCCCCCCCCC(=O)*; C16 diacid = O=C(O)CCCCCCCCCCCCCCC(=O)*; γGlu = O=C(O)[C@H](CCC(=O)[*:2])N[*:1]; 2Nal = N[C@@H](Cc1ccc2ccccc2c1)C(=O)O; AEF = NCCOc1ccc(C[C@H](N)C(=O)O)cc1; 3Pal = N[C@@H](Cc1cccnc1)C(=O)O; Pen = CC(C)(S)[C@H](N)C(=O)O; Thp = NC1(C(=O)O)CCOCC1; AEEA = NCCOCCOCC(=O)O; Sar = CNCC(=O)O

Target: T1, IL-23R (Homo sapiens, UniProt Q5VWK5)
T1 construct: HEK293 cells containing IL-23R, IL-12RP31 and a firefly luciferase reporter gene driven by a STAT-inducible promoter (Promega); host or cells: HEK293
T1 sequence (Q5VWK5 24-629): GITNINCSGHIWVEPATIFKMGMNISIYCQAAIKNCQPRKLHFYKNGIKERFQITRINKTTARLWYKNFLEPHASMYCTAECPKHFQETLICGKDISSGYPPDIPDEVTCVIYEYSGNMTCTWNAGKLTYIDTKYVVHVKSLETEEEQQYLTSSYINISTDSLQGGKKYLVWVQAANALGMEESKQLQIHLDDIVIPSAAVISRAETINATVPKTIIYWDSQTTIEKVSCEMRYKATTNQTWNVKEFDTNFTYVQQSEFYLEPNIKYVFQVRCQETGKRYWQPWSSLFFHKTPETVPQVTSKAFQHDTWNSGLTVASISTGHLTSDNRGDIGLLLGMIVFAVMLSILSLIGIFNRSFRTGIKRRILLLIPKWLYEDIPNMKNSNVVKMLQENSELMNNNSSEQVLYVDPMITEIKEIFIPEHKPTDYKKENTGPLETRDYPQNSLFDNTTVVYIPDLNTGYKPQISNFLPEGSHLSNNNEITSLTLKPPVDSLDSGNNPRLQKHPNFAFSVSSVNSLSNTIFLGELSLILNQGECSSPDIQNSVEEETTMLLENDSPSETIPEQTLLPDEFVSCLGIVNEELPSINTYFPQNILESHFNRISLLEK
Assay: IL23R Reporter Assay
Type: cell-based
Excerpt: IL-23 binding to IL-23 receptors results in the activation of the Signal Transducer and Activator of Transcription 3 (STAT3) by phosphorylation and downstream signaling events. Accordingly. the ability of the inhibitors described herein to block IL-23 action can be assessed by monitoring the status of STAT3 activation in response to IL-23. This may be accomplished in reporter cell assays or in intact cells such as peripheral blood mononuclear cells (PBMCs).
Compounds were serially diluted in 100% (v/v) DMSO) and plated using an Echo acoustic dispenser (Labcyte) into 1536-well non-treated black assay plates (Corning #9146). […] After 5 h at 37° C., 5% CO2, 95% relative humidity, cells were placed at 20° C. and treated with BioGlo reagent (Promega) according to the Manufacturer's instructions. Luminescence was measured on a Pherastar FSX (BMG LabTech).

| IC50 [nM] | SMILES |
| --- | --- |
| 0.036 | CC(=O)NCCCC[C@@H]1NC(=O)[C@H](Cc2c[nH]c3c(C)cccc23)NC(=O)[C@H]([C@@H](C)O)NC(=O)[C@H](CC(N)=O)NC(=O)[C@@H](NC(=O)[C@@H](CCCNC(=N)N)NC(C)=O)C(C)(C)SSC(C)(C)[C@@H](C(=O)N[C@@H](Cc2ccc(OCCN)cc2)C(=O)N[C@@H](Cc2ccc3ccccc3c2)C(=O)NC2(C(=O)N[C@@H](CCC(=O)O)C(=O)N[C@@H](CC(N)=O)C(=O)N[C@@H](Cc3cccnc3)C(=O)N(C)CC(=O)N[C@@H](CCCCNC(=O)COCCOCCNC(=O)COCCOCCNC(=O)CC[C@H](NC(=O)CCCCCCCCCCCCCCC(=O)O)C(=O)O)C(N)=O)CCOCC2)NC1=O [Example 17, MeCO-r-Pen*-N-T-7MeW-K(Ac)-Pen*-AEF-2Nal-THP-E-N-3Pya-Sar-K(PEG2PEG2gEC16OH)-CONH2] (Ac-[dR][Pen]NT[Trp(7-Me)]K(Ac)[Pen][AEF][2Nal][Thp]EN[3Pal][Sar]K([AEEA-AEEA-γGlu-C16 diacid])-NH2; disulfide 2-7) |
| 0.037 | CC(=O)NCCCC[C@@H]1NC(=O)[C@H](Cc2c[nH]c3c(C)cccc23)NC(=O)[C@H]([C@@H](C)O)NC(=O)[C@H](CC(N)=O)NC(=O)[C@@H](NC(C)=O)C(C)(C)SSC(C)(C)[C@@H](C(=O)N[C@@H](Cc2ccc(OCCN)cc2)C(=O)N[C@@H](Cc2ccc3ccccc3c2)C(=O)NC2(C(=O)N[C@@H](CCCCNC(=O)COCCOCCNC(=O)COCCOCCNC(=O)CC[C@H](NC(=O)CCCCCCCCCCCCCCC(=O)O)C(=O)O)C(=O)N[C@@H](CC(N)=O)C(=O)N[C@@H](Cc3cccnc3)C(=O)N(C)CC(N)=O)CCOCC2)NC1=O [Example 19, MeCO-Pen*-N-T-7MeW-K(Ac)-Pen*-AEF-2Nal-THP-K(PEG2PEG2gEC16OH)-N-3Pya-Sar-CONH2] (Ac-[Pen]NT[Trp(7-Me)]K(Ac)[Pen][AEF][2Nal][Thp]K([AEEA-AEEA-γGlu-C16 diacid])N[3Pal][Sar]-NH2; disulfide 1-6) |
| 0.067 | CC(=O)NCCCC[C@@H]1NC(=O)[C@H](Cc2c[nH]c3c(C)cccc23)NC(=O)[C@H]([C@@H](C)O)NC(=O)[C@H](CCCCNC(=O)COCCOCCNC(=O)COCCOCCNC(=O)CC[C@H](NC(=O)CCCCCCCCCCCCCCCCC(=O)O)C(=O)O)NC(=O)[C@@H](NC(=O)[C@@H](CCCNC(=N)N)NC(C)=O)C(C)(C)SSC(C)(C)[C@@H](C(=O)N[C@@H](Cc2ccc(OCCN)cc2)C(=O)N[C@@H](Cc2ccc3ccccc3c2)C(=O)NC2(C(=O)N[C@@H](CCC(=O)O)C(=O)N[C@@H](CC(N)=O)C(=O)N[C@@H](Cc3cccnc3)C(=O)N(C)CC(N)=O)CCOCC2)NC1=O [Example 20, MeCO-r-Pen*-K(PEG2PEG2gEC18OH)-T-7MeW-K(Ac)-Pen*-AEF-2Nal-THP-E-N-3Pya-Sar-CONH2] (Ac-[dR][Pen]K([AEEA-AEEA-γGlu-C18 diacid])T[Trp(7-Me)]K(Ac)[Pen][AEF][2Nal][Thp]EN[3Pal][Sar]-NH2; disulfide 2-7) |
| 0.033 | CC(=O)NCCCC[C@@H]1NC(=O)[C@H](Cc2c[nH]c3c(C)cccc23)NC(=O)[C@H]([C@@H](C)O)NC(=O)[C@H](CCCCNC(=O)COCCOCCNC(=O)COCCOCCNC(=O)CC[C@H](NC(=O)CCCCCCCCCCCCCCC(=O)O)C(=O)O)NC(=O)[C@@H](NC(=O)[C@@H](CCCNC(=N)N)NC(C)=O)C(C)(C)SSC(C)(C)[C@@H](C(=O)N[C@@H](Cc2ccc(OCCN)cc2)C(=O)N[C@@H](Cc2ccc3ccccc3c2)C(=O)NC2(C(=O)N[C@@H](CCC(=O)O)C(=O)N[C@@H](CC(N)=O)C(=O)N[C@@H](Cc3cccnc3)C(=O)N(C)CC(N)=O)CCOCC2)NC1=O [Example 21, MeCO-r-Pen*-K(PEG2PEG2gEC16OH)-T-7MeW-K(Ac)-Pen*-AEF-2Nal-THP-E-N-3Pya-Sar-CONH2] (Ac-[dR][Pen]K([AEEA-AEEA-γGlu-C16 diacid])T[Trp(7-Me)]K(Ac)[Pen][AEF][2Nal][Thp]EN[3Pal][Sar]-NH2; disulfide 2-7) |
